Experimental data as given in ChEMBL document CHEMBL5241058, “Pyrazole-based analogs as potential antibacterial agents against methicillin-resistance staphylococcus aureus (MRSA) and its SAR elucidation” (Eur J Med Chem, 2021).
≈ marks a conversion by molar mass, not a printed value.

Assays:
Assay type in all cases: functional
Staphylococcus aureus [1] = assay: Antimicrobial activity against vancomycin intermediate-resistant Staphylococcus aureus assessed as bacterial growth inhibition incubated for 24 hrs by microdilution method
Staphylococcus aureus [2] = assay: Antimicrobial activity against Methicillin sensitive Staphylococcus aureus assessed as bacterial growth inhibition incubated for 18 hrs
Escherichia coli = assay: Antimicrobial activity against Escherichia coli ATCC 8739 assessed as bacterial growth inhibition incubated for 18 hrs by microdilution method
[3] = system: Salmonella enterica subsp. enterica; assay: Antimicrobial activity against Salmonella typhimurium […] assessed as bacterial growth inhibition incubated for 18 hrs by microdilution method
Klebsiella pneumoniae = assay: Antimicrobial activity against Klebsiella pneumoniae ATCC 314588 assessed as bacterial growth inhibition incubated for 18 hrs by microdilution method
Pseudomonas aeruginosa = assay: Antimicrobial activity against Pseudomonas aeruginosa ATCC 27853 assessed as bacterial growth inhibition incubated for 18 hrs by microdilution method
Staphylococcus aureus [4] = assay: Antimicrobial activity against Methicillin-resistant Staphylococcus aureus ATCC 43300 assessed as bacterial growth inhibition incubated for 24 hrs by microdilution method; conditions: ATCC43300
Staphylococcus aureus [5] = assay: Antibiofilm activity against Methicillin-resistant Staphylococcus aureus USA 300 relative to control
Staphylococcus aureus [6] = assay: Antimicrobial activity against Staphylococcus aureus 209 assessed as bacterial growth inhibition
Staphylococcus aureus [7] = assay: Antimicrobial activity against Methicillin-resistant Staphylococcus aureus ATCC 3167 assessed as bacterial growth inhibition
Staphylococcus aureus [8] = assay: Antimicrobial activity against Methicillin-resistant Staphylococcus aureus ATCC 43300 assessed as bacterial growth inhibition by microdilution method
Staphylococcus aureus [9] = assay: Antimicrobial activity against Methicillin-resistant Staphylococcus aureus BFSA25 assessed as bacterial growth inhibition by microdilution method; conditions: BFA25
Staphylococcus aureus [10] = assay: Antimicrobial activity against Methicillin-resistant Staphylococcus aureus BFSA30 assessed as bacterial growth inhibition by microdilution method; conditions: BFA30
Staphylococcus aureus [11] = assay: Antimicrobial activity against Methicillin-resistant Staphylococcus aureus BFSA31 assessed as bacterial growth inhibition by microdilution method; conditions: BFA31
Staphylococcus aureus [12] = assay: Antimicrobial activity against Methicillin-resistant Staphylococcus aureus BFSA32 assessed as bacterial growth inhibition by microdilution method; conditions: BFA32
Staphylococcus aureus [13] = assay: Antimicrobial activity against Methicillin-resistant Staphylococcus aureus BFSA33 assessed as bacterial growth inhibition by microdilution method; conditions: BFA33
Staphylococcus aureus [14] = assay: Antimicrobial activity against Methicillin-resistant Staphylococcus aureus BFSA48 assessed as bacterial growth inhibition by microdilution method; conditions: BFA48
Staphylococcus aureus [15] = assay: Antimicrobial activity against Methicillin-resistant Staphylococcus aureus ATCC 33599 assessed as bacterial growth inhibition
Staphylococcus aureus [16] = assay: Antimicrobial activity against Staphylococcus aureus MTCC 96 assessed as bacterial growth inhibition incubated for 24 to 48 hrs; conditions: time 24-48 hrs
Staphylococcus aureus [17] = assay: Antimicrobial activity against Staphylococcus aureus MTCC 442 assessed as bacterial growth inhibition incubated for 24 to 48 hrs; conditions: time 24-48 hrs
Staphylococcus aureus [18] = assay: Antimicrobial activity against Methicillin-sensitive Staphylococcus aureus ATCC 33591 assessed as bacterial growth inhibition by microbroth serial dilution method
Staphylococcus aureus [19] = assay: Antimicrobial activity against Methicillin-sensitive Staphylococcus aureus ATCC 43300 assessed as bacterial growth inhibition by microbroth serial dilution method
Staphylococcus aureus [20] = assay: Antimicrobial activity against Methicillin-sensitive Staphylococcus aureus ATCC 33591 assessed as bacterial growth inhibition incubated for 24 hrs
Staphylococcus aureus [21] = assay: Antimicrobial activity against Methicillin-sensitive Staphylococcus aureus ATCC 43300 assessed as bacterial growth inhibition incubated for 24 hrs; conditions: ATCC43300

Cc1ccc(O)c(C(=O)c2cc(C(F)(F)F)n[nH]2)c1
MIC (Staphylococcus aureus [1]): < 0.125 µg/mL

CC(=O)c1c(N2Cc3nn(C)c(N)c3C2)c(F)cc2c(=O)c(C(=O)O)cn(C3CC3)c12
MIC (Staphylococcus aureus [2]): 0.125 µg/mL (≈ 0.294 µM)

O=C(c1cc(C(F)(F)F)n[nH]1)c1cc(Br)ccc1O
MIC (Staphylococcus aureus [1]): < 0.125 µg/mL

Clc1ccccc1-c1nn(-c2ccccc2)cc1-c1nc2ccccn2c1Cc1ccccc1
MIC (Escherichia coli): < 1 µg/mL
MIC [3]: < 1 µg/mL
MIC (Klebsiella pneumoniae): < 1 µg/mL
MIC (Pseudomonas aeruginosa): < 1 µg/mL

Cc1nn(-c2ccccc2)c2c1C(C(=O)O)CC=C(C(=O)O)N2 (stereo unspecified)
MIC (Staphylococcus aureus [4]): > 500 µg/mL

CCCC#Cc1ccc(-n2ncc(/C(C)=N\NC(=N)N)c2C)cc1
Activity (Staphylococcus aureus [5]): 74%

COc1[nH]nc2nncnc12
MIC (Staphylococcus aureus [6]): 200 µg/mL (≈ 1320 µM)

COc1cc(/C=C/c2cc(/C=C/c3ccc(OCC(=O)N[C@@H](C)c4ccccc4)c(OC)c3)[nH]n2)ccc1OCC(=O)N[C@@H](C)c1ccccc1
MIC (Staphylococcus aureus [7]): 10 µM (≈ 6.87 µg/mL)

O=C1S/C(=C\c2cn(-c3ccccc3)nc2-c2ccc(Cl)cc2)C(=O)N1CCCn1ccc2ccccc21
MIC (Staphylococcus aureus [8]): > 50 µg/mL

CCCSC(=S)c1c(C)nn(-c2ccccc2)c1O
MIC (Staphylococcus aureus [9]): 4 µg/mL
MIC (Staphylococcus aureus [10]): 4 µg/mL
MIC (Staphylococcus aureus [11]): 4 µg/mL
MIC (Staphylococcus aureus [12]): 4 µg/mL
MIC (Staphylococcus aureus [13]): 4 µg/mL
MIC (Staphylococcus aureus [14]): 4 µg/mL

O=C(O)c1ccc(-n2cc(/C=N/c3cccc(Cl)c3F)c(-c3ccc4ccccc4c3)n2)cc1
MBC (Staphylococcus aureus [15]): 12.5 µg/mL (≈ 26.6 µM)
MIC (Staphylococcus aureus [15]): 0.78 µg/mL (≈ 1.66 µM)

C/C(=N/NC1=NCCN1)c1cnn(-c2ccc(C#CC(C)(C)C)cc2)c1C
Activity (Staphylococcus aureus [5]): 62%

Cc1nn(-c2ccc(C#N)cc2)c2c1C(C(=O)O)CC=C(C(=O)O)N2 (stereo unspecified)
MIC (Staphylococcus aureus [4]): > 500 µg/mL

O=C(c1cc(C(F)(F)F)n[nH]1)c1cccc(Br)c1O
MIC (Staphylococcus aureus [1]): < 0.125 µg/mL

O=C(c1cc(C(F)(F)F)n[nH]1)c1cc(Cl)cc(Cl)c1O
MIC (Staphylococcus aureus [1]): < 0.125 µg/mL

Cc1nn(-c2ccc(Cl)cc2)c2c1C(C(=O)O)CC=C(C(=O)O)N2 (stereo unspecified)
MIC (Staphylococcus aureus [4]): > 500 µg/mL

O=C(O)c1ccc(-n2cc(/C=N/c3ccc(Cl)cc3Cl)c(-c3ccc4ccccc4c3)n2)cc1
MBC (Staphylococcus aureus [15]): 6.25 µg/mL (≈ 12.9 µM)
MIC (Staphylococcus aureus [15]): 0.78 µg/mL (≈ 1.6 µM)

COc1nnc2nn(C)cnc1-2
MIC (Staphylococcus aureus [6]): 50 µg/mL (≈ 303 µM)

O=C(/C=C/c1ccc(F)cc1)N1N=C(c2ccncc2)OC1c1cn(-c2ccccc2)nc1-c1ccc(F)cc1 (stereo unspecified)
MIC (Staphylococcus aureus [16]): 6.25 µg/mL (≈ 11.7 µM)
MIC (Staphylococcus aureus [17]): 6.25 µg/mL (≈ 11.7 µM)

O=C(/C=C/c1ccc([N+](=O)[O-])cc1)N1N=C(c2ccncc2)OC1c1cn(-c2ccccc2)nc1-c1ccc(F)cc1 (stereo unspecified)
MIC (Staphylococcus aureus [16]): 12.5 µg/mL (≈ 22.3 µM)
MIC (Staphylococcus aureus [17]): 12.5 µg/mL (≈ 22.3 µM)

CC(=O)NC[C@H]1CN(c2ccc(N3CCOCC3)c(F)c2)C(=O)O1 [LINEZOLID]
MIC (Staphylococcus aureus [18]): 2.6 µM
MIC (Staphylococcus aureus [18]; Staphylococcus aureus, ATCC 33591, read-out: MIC): 5.2 µM
MBC (Staphylococcus aureus [19]): 46.2 µM
MIC (Staphylococcus aureus [19]): 2.6 µM
MBC (Staphylococcus aureus [20]): 46.2 µM (≈ 15.6 µg/mL)
MBC (Staphylococcus aureus [21]): 46.2 µM (≈ 15.6 µg/mL)

Cc1nn(-c2ccc(Br)cc2)c2c1C(C(=O)O)CC=C(C(=O)O)N2 (stereo unspecified)
MIC (Staphylococcus aureus [4]): > 500 µg/mL

O=C(c1cc(C(F)(F)F)n[nH]1)c1ccc(Cl)cc1O
MIC (Staphylococcus aureus [1]): < 0.125 µg/mL

Cc1cc(O)c(C(=O)c2cc(C(F)(F)F)n[nH]2)cc1Cl
MIC (Staphylococcus aureus [1]): < 0.125 µg/mL

O=C1S/C(=C\c2cn(-c3ccccc3)nc2-c2ccc(Cl)cc2Cl)C(=O)N1CCCn1ccc2ccccc21
MIC (Staphylococcus aureus [8]): 6.25 µg/mL

CN[C@H](CC(C)C)C(=O)N[C@H]1C(=O)N[C@@H](CC(N)=O)C(=O)N[C@H]2C(=O)N[C@H]3C(=O)N[C@H](C(=O)N[C@H](C(=O)O)c4cc(O)cc(O)c4-c4cc3ccc4O)[C@H](O)c3ccc(c(Cl)c3)Oc3cc2cc(c3O[C@@H]2O[C@H](CO)[C@@H](O)[C@H](O)[C@H]2O[C@H]2C[C@](C)(N)[C@H](O)[C@H](C)O2)Oc2ccc(cc2Cl)[C@H]1O [VANCOMYCIN]
MBC (Staphylococcus aureus [15]): 6.25 µg/mL (≈ 4.31 µM)
MIC (Staphylococcus aureus [15]): 3.12 µg/mL (≈ 2.16 µM)
MIC (Staphylococcus aureus [1]): < 0.125 µg/mL
Activity (Staphylococcus aureus [5]): 18%
